Experimental data reported in the NIST ThermoML archive (doi:10.1021/acs.jced.9b00561).
± gives the expanded uncertainty stated by the source. One block for each compound: values may come before it.

Test: refractive index (Na D-line) (dimensionless); wn = mass fraction of the nth substance listed
Settings: 323.15 K, 101.3 kPa, Liquid, Standard Abbe refractometry

- refractive index (w1 = 0.4841): 1.439 ± 0.0018
Structure (SMILES): [Cl-].[Li+] [lithium chloride] + O

- refractive index (w1 = 0.2683): 1.3765 ± 0.0019
Structure (SMILES): [Cl-].[Na+] [sodium chloride] + O

Structure (SMILES): O=BOB([O-])OB([O-])OB=O.[Na+].[Na+] [sodium tetraborate] + O
- refractive index (w1 = 0.0953): 1.3477 ± 0.0004
